Non-standard residues stand in square brackets, D forms with d. Residues, ends and D or L forms follow the SMILES beside them. 2Nal = N[C@@H](Cc1ccc2ccccc2c1)C(=O)O; Nle = CCCC[C@H](N)C(=O)O; βAla = NCCC(=O)O

Assay [1] deals with T1, recombinant hPTH1-receptor (Homo sapiens, UniProt Q03431).
T1 construct: expressed in transfected cells
T1 sequence (Q03431 27-593): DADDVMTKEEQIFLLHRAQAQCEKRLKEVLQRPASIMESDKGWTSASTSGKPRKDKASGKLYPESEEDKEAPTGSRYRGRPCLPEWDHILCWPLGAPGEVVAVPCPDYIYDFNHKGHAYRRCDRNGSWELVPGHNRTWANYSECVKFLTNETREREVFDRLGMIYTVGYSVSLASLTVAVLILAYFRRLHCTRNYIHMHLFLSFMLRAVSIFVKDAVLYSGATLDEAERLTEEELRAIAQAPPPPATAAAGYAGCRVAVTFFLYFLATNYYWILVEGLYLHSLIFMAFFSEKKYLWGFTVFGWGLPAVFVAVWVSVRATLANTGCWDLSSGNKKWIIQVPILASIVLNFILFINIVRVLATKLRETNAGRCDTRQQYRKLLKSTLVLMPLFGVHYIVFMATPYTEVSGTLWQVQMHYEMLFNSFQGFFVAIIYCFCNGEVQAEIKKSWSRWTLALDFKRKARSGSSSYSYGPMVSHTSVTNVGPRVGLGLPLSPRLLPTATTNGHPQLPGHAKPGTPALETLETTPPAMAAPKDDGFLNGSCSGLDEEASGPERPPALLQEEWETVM
In words: Radioreceptor competition binding, 125I-PTH(1-34), HEK293/C21 cells. As to conditions: 125I-PTH(1-34) ~0.1 nM, 2 h at room temperature. As to the method:
(§1) Human embryonic kidney (HEK293) cells, stably transfected with recombinant hPTH1-receptor (HEK293/C21 cell line, ˜400,000 receptors/cell) (Pines, M., Adams, A. E., Stueckle, S., Bessalle, R., Rashti-Behar, V., Chorev, M., Rosenblatt, M., and Suva, L. J. Endocrinology 1994, 135, 1713-1716), were maintained in D-MEM medium supplemented with 10% fetal bovine serum and […] glutamine at 37° C. in a humidified atmosphere of 95% air/5% CO2. The medium was changed every 3-4 days, and the cells were subcultured every week. Ligand stimulated adenylyl cyclase activity and radioreceptor competition binding assays were performed on confluent cultures, 1-3 days after a change of medium.
[Nle^8,18,Nal^23,Tyr^34]bPTH(1-34)-NH2 was radioiodinated and the crude material was purified as previously described (Roubini, E., Duong, L. T., Gibbons, S. W., Leu, C. T., Caulfield, M. P., Chorev, M., and Rosenblatt, M. Biochemistry 1992, 31, 4026-4033). […] The pure mono-radioiodinated peptide was isolated on an analytical RP-HPLC Vydac Protein C18 column (The Separation Group, Hesperia, Calif.) employing a linear gradient of 36-42% B in A for 30 min (A, 0.1% TFA in water; B, 0.1% TFA in acetonitrile) at a flow rate of 1 mL/min, and monitored at 220 nm. […]

The target in assay [2] is T1, recombinant hPTH1-receptor. In words: Stimulation of adenylyl cyclase activity in HEK293/C21 cells. The assay is classed as cell-based. The settings on record: 1 mM IBMX, 5 min incubation, read-out: EC50 (half maximal stimulation of adenylate cyclase). The procedure: as §1
Stimulation of adenylyl cyclase activity by the PTH(1-34) analogues was assayed in stably transfected HEK293/C21 as described before (Nakamoto, C., Behar, V., Chin, K. R., Adams, A. E.; Suva, L. J.; Rosenblatt, M.; Chorev, M. Biochemistry 1995, 34, 10546-10552.). Shortly, cells were grown to confluence in 24-well culture dishes. They were then incubated with 0.5 μCi [^3H]adenine in fresh PBS supplemented medium at 37° C. for 2 h and further treated with 1 mM 3-isobutyl-1-methylxantine (IBMX) in fresh medium for 15 min at 37° C. […] Radioactivity was measured in a liquid scintillation counter (Beciman LS6000IC liquid scintillation counter, Downers Grove, Ill.).

Turning to `CCCC[C@H](NC(=O)[C@H](Cc1ccccc1)NC(=O)[C@H](CCC(N)=O)NC(=O)[C@@H](NC(=O)[C@H](CCC(=O)O)NC(=O)[C@H](CO)NC(=O)[C@@H](NC(=O)[C@H](C)N)C(C)C)[C@@H](C)CC)C(=O)N[C@@H](Cc1c[nH]cn1)C(=O)N[C@@H](CC(N)=O)C(=O)N[C@@H](CC(C)C)C(=O)NCC(=O)N[C@@H](CCCCN)C(=O)N[C@@H](Cc1c[nH]cn1)C(=O)N[C@@H](CC(C)C)C(=O)N[C@@H](CO)C(=O)N[C@@H](CO)C(=O)NCCC(=O)NCCC(=O)N[C@@H](CCCNC(=N)N)C(=O)N[C@H](C(=O)N[C@@H](CCC(=O)O)C(=O)N[C@@H](Cc1ccc2ccccc2c1)C(=O)N[C@@H](CC(C)C)C(=O)N[C@@H](CCCNC(=N)N)C(=O)N[C@@H](CCCCN)C(=O)N[C@@H](CCCCN)C(=O)N[C@@H](CC(C)C)C(=O)N[C@@H](CCC(N)=O)C(=O)N[C@@H](CC(=O)O)C(=O)N[C@H](C(=O)N[C@@H](Cc1c[nH]cn1)C(=O)N[C@@H](CC(N)=O)C(=O)N[C@@H](Cc1ccc(O)cc1)C(N)=O)C(C)C)C(C)C` [SEQ ID NO: 14, [Nle^8,β-Ala^18,19,Nal^23,Tyr^34]bPTH(1–34)NH2] (H-AVSEIQF[Nle]HNLGKHLSS[βAla][βAla]RVE[2Nal]LRKKLQDVHNY-NH2; N-terminus assumed), in assay [1], the IC50 is over 1000 nM. Moreover, the EC50 in assay [2] was found to be 13.82 ± 0.02 nM.

Broadly, the IC50 is the concentration that gives 50% inhibition. The EC50 is the concentration at which the effect is half-maximal.

The values above are taken from patent publication US7799757B2, “Analogs of parathyroid hormone and PTH-related protein as bone anabolic agents” (priority 2002, dated 2010).
